From US8604217B2, “Compound, a process for its preparation, a pharmaceutical composition, use of a compound, a method for modulating or regulating serine/threonine kinases and a serine/threonine kinases modulating agent” (Selvita S.A., priority 2009, dated 2013)

What was measured:
Experiment in all cases: KinaseProfiler kinase panel
Type in all cases: biochemical
HIPK3(h) = HIPK3(h) (Homo sapiens (Human), UniProt Q9H422)
PKG1β(h) = PKG1β(h) (Homo sapiens (Human), UniProt Q13976)
EGFR(T790M, L858R)(h) = EGFR(T790M, L858R)(h) (Homo sapiens (Human), UniProt P00533, L858R/T790M)
Mer(h) = Mer(h) (Homo sapiens (Human), UniProt Q12866)
Chain of Mer(h) (Q12866 21-999): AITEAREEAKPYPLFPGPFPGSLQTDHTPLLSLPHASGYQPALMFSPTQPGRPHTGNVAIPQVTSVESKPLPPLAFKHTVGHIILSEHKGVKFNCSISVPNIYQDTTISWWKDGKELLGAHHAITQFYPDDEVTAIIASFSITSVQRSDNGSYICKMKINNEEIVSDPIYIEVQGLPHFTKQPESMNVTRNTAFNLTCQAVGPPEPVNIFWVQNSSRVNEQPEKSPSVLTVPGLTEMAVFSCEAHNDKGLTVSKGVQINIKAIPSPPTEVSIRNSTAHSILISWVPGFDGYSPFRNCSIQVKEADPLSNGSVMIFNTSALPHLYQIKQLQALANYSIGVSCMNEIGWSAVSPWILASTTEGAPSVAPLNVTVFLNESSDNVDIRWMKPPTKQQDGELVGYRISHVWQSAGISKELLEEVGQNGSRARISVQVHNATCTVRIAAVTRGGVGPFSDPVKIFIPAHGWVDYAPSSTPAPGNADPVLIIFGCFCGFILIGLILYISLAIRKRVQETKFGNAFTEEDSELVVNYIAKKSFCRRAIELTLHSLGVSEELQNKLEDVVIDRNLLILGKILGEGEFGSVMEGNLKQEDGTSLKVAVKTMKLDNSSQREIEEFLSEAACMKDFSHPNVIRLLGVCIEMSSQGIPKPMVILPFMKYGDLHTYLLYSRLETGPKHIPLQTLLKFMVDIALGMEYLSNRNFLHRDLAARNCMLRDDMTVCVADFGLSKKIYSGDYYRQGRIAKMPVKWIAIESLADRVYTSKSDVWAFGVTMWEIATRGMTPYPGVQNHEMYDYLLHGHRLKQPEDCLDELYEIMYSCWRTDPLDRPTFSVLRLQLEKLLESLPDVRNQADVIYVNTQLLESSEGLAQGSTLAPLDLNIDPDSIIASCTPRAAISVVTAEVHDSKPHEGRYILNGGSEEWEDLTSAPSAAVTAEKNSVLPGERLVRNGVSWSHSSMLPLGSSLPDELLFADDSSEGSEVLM

Flt4(h) = Flt4(h) (Homo sapiens (Human), UniProt P35916)
Chain of Flt4(h) (P35916 25-1363): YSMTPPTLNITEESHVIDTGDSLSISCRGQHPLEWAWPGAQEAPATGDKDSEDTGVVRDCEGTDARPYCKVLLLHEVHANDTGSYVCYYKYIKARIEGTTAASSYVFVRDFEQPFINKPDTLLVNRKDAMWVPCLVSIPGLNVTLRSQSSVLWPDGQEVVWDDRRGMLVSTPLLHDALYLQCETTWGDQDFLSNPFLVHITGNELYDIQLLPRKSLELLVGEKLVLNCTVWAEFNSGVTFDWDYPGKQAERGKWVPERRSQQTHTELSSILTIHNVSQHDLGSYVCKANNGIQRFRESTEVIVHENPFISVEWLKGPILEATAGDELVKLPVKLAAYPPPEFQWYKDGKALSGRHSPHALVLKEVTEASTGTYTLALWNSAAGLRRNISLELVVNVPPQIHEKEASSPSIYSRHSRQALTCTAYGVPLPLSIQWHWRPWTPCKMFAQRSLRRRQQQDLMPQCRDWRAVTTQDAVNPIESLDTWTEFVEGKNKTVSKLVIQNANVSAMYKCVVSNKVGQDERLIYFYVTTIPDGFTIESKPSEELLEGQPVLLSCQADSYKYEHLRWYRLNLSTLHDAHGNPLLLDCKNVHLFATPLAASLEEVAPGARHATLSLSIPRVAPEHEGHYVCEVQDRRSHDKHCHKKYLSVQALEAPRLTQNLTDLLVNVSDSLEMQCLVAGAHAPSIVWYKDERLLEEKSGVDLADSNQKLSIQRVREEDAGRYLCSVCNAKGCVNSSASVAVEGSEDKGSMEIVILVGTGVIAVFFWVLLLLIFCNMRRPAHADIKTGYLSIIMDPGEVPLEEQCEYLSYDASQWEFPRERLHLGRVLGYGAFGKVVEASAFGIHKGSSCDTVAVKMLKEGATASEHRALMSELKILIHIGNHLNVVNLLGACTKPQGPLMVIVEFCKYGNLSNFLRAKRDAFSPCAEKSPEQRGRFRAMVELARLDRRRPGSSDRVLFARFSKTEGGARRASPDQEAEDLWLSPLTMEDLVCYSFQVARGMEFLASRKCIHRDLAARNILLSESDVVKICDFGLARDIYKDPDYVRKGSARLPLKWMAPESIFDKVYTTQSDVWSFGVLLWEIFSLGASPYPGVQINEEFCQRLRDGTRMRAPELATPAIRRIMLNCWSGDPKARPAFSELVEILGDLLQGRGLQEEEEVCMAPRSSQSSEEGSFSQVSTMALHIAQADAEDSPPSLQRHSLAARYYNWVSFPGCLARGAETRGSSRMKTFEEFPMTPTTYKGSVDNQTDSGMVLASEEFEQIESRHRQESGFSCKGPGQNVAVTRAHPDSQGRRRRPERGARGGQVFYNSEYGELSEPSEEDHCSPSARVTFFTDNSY

CDK9/cyclin T1(h) = CDK9/cyclin T1(h) (Homo sapiens (Human), UniProt P50750)
CaMKIIδ(h) = CaMKIIδ(h) (Homo sapiens (Human), UniProt Q13557)
Chain of CaMKIIδ(h) (Q13557 whole entry): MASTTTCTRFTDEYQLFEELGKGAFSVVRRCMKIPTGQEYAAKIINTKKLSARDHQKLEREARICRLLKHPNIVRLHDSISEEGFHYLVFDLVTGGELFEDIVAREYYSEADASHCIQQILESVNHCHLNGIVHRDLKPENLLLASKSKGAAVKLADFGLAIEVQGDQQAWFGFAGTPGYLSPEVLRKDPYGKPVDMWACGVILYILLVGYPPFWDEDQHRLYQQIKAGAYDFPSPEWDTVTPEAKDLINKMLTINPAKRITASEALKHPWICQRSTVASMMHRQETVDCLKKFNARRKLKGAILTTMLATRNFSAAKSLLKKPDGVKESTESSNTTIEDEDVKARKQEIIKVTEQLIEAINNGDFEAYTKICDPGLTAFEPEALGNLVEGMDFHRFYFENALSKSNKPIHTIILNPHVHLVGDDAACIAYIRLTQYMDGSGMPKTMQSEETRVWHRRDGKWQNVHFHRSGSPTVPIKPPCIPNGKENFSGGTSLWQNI

CaMKIIγ(h) = CaMKIIγ(h) (Homo sapiens (Human), UniProt Q13555)
Lck(h) = Lck(h) (Homo sapiens (Human), UniProt P06239)
LOK(h) = LOK(h) (Homo sapiens (Human), UniProt O94804)
IRAK4(h) = IRAK4(h) (Homo sapiens (Human), UniProt Q9NWZ3)
MSK1(h) = MSK1(h) (Homo sapiens (Human), UniProt O75582)
PRK2(h) = PRK2(h) (Homo sapiens (Human), UniProt Q16513)
cKit(D816V)(h) = cKit(D816V)(h) (Homo sapiens (Human), UniProt P10721, D816V)
STK33(h) = STK33(h) (Homo sapiens (Human), UniProt Q9BYT3)
Chain of STK33(h) (Q9BYT3 whole entry): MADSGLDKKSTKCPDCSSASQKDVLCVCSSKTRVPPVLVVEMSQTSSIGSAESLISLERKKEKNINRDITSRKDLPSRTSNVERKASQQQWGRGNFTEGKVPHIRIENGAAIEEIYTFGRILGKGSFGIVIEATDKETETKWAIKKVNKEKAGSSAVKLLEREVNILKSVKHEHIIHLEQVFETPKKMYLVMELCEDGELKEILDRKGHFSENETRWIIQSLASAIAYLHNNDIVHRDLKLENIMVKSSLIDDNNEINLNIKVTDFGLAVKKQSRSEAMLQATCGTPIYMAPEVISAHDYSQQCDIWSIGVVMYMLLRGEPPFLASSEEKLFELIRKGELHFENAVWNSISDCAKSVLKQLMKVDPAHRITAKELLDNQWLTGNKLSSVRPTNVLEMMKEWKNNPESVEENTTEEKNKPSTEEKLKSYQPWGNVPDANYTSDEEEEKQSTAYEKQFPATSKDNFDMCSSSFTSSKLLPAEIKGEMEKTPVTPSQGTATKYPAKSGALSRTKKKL

CaMKIIβ(h) = CaMKIIβ(h) (Homo sapiens (Human), UniProt Q13554)
Met(D1246H)(h) = Met(D1246H)(h) (Homo sapiens (Human), UniProt P08581, D1246H)
PrKX(h) = PrKX(h) (Homo sapiens (Human), UniProt P51817)
IGF-1R(h) = IGF-1R(h) (Homo sapiens (Human), UniProt P08069)
BRK(h) = BRK(h) (Homo sapiens (Human), UniProt Q13882)
CHK2(R145W)(h) = CHK2(R145W)(h) (Homo sapiens (Human), UniProt O96017, R145W)
Hck(h) = Hck(h) (Homo sapiens (Human), UniProt P08631)
Met(h) = Met(h) (Homo sapiens (Human), UniProt P08581)
CK1γ2(h) = CK1γ2(h) (Homo sapiens (Human), UniProt P78368)
Chain of CK1γ2(h) (P78368 whole entry): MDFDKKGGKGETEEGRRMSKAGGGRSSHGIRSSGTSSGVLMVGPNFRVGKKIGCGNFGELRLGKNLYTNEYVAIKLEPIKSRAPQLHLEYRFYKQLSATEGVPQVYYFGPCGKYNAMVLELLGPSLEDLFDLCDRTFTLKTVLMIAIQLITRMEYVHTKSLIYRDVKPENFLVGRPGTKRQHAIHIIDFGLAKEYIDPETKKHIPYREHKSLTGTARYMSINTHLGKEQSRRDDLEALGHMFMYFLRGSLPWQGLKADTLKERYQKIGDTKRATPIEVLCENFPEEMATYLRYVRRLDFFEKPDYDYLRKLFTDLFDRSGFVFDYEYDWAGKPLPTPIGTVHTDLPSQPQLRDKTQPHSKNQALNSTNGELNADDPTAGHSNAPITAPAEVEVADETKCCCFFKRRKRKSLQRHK

MLK1(h) = MLK1(h) (Homo sapiens (Human), UniProt P80192)
PKCδ(h) = PKCδ(h) (Homo sapiens (Human), UniProt Q05655)
ROCK-I(h) = ROCK-I(h) (Homo sapiens (Human), UniProt Q13464)
IR(h), activated = IR(h), activated (Homo sapiens (Human), UniProt P06213)
Chain of IR(h), activated (P06213 28-1382): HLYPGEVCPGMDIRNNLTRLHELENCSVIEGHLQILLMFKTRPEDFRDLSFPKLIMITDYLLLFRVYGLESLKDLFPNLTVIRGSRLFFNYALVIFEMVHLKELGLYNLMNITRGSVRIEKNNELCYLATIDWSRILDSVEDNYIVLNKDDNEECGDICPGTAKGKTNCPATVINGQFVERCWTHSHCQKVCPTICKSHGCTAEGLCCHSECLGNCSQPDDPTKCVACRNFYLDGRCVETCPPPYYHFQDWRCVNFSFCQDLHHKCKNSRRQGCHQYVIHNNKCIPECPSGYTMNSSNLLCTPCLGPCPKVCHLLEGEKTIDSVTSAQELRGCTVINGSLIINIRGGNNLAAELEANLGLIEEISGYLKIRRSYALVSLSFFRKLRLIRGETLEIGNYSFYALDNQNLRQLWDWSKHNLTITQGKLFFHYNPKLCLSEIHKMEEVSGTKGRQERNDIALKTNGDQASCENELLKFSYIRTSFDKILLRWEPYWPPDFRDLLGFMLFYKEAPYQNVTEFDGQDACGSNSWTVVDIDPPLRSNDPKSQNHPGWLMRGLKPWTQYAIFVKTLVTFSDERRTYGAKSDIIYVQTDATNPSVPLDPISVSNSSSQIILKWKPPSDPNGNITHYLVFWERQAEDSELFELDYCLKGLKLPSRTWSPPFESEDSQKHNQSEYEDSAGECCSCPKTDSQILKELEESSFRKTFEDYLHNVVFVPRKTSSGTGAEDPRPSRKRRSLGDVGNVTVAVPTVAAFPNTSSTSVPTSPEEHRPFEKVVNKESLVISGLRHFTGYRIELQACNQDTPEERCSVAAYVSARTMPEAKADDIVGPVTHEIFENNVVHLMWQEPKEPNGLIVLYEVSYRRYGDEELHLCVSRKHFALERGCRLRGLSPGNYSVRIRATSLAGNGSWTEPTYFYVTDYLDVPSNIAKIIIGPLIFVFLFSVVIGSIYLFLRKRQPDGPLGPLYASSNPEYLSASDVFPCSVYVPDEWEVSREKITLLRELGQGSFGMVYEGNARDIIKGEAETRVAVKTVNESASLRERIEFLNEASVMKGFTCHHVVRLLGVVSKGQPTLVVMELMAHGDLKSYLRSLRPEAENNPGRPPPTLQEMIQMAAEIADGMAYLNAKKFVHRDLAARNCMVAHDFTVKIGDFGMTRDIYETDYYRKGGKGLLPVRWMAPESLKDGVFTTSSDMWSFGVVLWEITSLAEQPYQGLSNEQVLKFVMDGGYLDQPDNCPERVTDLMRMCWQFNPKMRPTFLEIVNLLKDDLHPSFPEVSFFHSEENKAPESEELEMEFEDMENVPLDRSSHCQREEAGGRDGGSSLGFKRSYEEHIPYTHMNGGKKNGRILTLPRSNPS

MST3(h) = MST3(h) (Homo sapiens (Human), UniProt Q9Y6E0)
FAK(h) = FAK(h) (Homo sapiens (Human), UniProt Q05397)
PKCα(h) = PKCα(h) (Homo sapiens (Human), UniProt P17252)
NEK6(h) = NEK6(h) (Homo sapiens (Human), UniProt Q9HC98)
FGFR1(h) = FGFR1(h) (Homo sapiens (Human), UniProt P11362)
PTK5(h) = PTK5(h) (Homo sapiens (Human), UniProt P42685)
MAPKAP-K2(h) = MAPKAP-K2(h) (Homo sapiens (Human), UniProt P49137)
Ros(h) = Ros(h) (Homo sapiens (Human), UniProt P08922)
EphA2(h) = EphA2(h) (Homo sapiens (Human), UniProt P29317)
EphB2(h) = EphB2(h) (Homo sapiens (Human), UniProt P29323)
ZAP-70(h) = ZAP-70(h) (Homo sapiens (Human), UniProt P43403)
JAK2(h) = JAK2(h) (Homo sapiens (Human), UniProt O60674)

**Q.** `CCn1c(N2CCNCC2)nc2c(Br)c(Br)c(Br)c(Br)c21` [Compound 416, 4,5,6,7-tetrabromo-1-ethyl-2-(piperazin-1-yl)-1H-benzo[d]imidazole] was tested. Which remaining activity at 1 µM (HIPK3(h)) did it give?
**A.** Its remaining activity at 1 µM is -1%.

**Q.** What about the remaining activity at 1 µM (PKG1β(h)) of the same molecule?
**A.** The remaining activity at 1 µM was 5%.

**Q.** What about the remaining activity at 1 µM (EGFR(T790M, L858R)(h)) of the same molecule?
**A.** Its remaining activity at 1 µM is 11%.

**Q.** What about the remaining activity at 1 µM (Mer(h)) of the same molecule?
**A.** Its remaining activity at 1 µM is 14%.

**Q.** What about the remaining activity at 1 µM (Flt4(h)) of the same molecule?
**A.** Its remaining activity at 1 µM is 17%.

**Q.** And the remaining activity at 1 µM (CDK9/cyclin T1(h))?
**A.** The remaining activity at 1 µM was 27%.

**Q.** What about the remaining activity at 1 µM (CaMKIIδ(h)) of the same molecule?
**A.** Its remaining activity at 1 µM is 28%.

**Q.** What about the remaining activity at 1 µM (CaMKIIγ(h)) of the same molecule?
**A.** Its remaining activity at 1 µM is 41%.

**Q.** And the remaining activity at 1 µM (Lck(h))?
**A.** The remaining activity at 1 µM was 43%.

**Q.** What about the remaining activity at 1 µM (LOK(h)) of the same molecule?
**A.** Its remaining activity at 1 µM is 50%.

**Q.** And the remaining activity at 1 µM (IRAK4(h))?
**A.** Its remaining activity at 1 µM is 52%.

**Q.** What about the remaining activity at 1 µM (MSK1(h)) of the same molecule?
**A.** The remaining activity at 1 µM was 54%.

**Q.** What about the remaining activity at 1 µM (PRK2(h)) of the same molecule?
**A.** Its remaining activity at 1 µM is 56%.

**Q.** What about the remaining activity at 1 µM (cKit(D816V)(h)) of the same molecule?
**A.** Its remaining activity at 1 µM is 61%.

**Q.** What about the remaining activity at 1 µM (STK33(h)) of the same molecule?
**A.** The remaining activity at 1 µM was 66%.

**Q.** What about the remaining activity at 1 µM (CaMKIIβ(h)) of the same molecule?
**A.** The remaining activity at 1 µM was 67%.

**Q.** And the remaining activity at 1 µM (Met(D1246H)(h))?
**A.** Its remaining activity at 1 µM is 72%.

**Q.** What about the remaining activity at 1 µM (PrKX(h)) of the same molecule?
**A.** The remaining activity at 1 µM was 74%.

**Q.** And the remaining activity at 1 µM (IGF-1R(h))?
**A.** The remaining activity at 1 µM was 75%.

**Q.** What about the remaining activity at 1 µM (BRK(h)) of the same molecule?
**A.** The remaining activity at 1 µM was 76%.

**Q.** What about the remaining activity at 1 µM (CHK2(R145W)(h)) of the same molecule?
**A.** Its remaining activity at 1 µM is 76%.

**Q.** What about the remaining activity at 1 µM (Hck(h)) of the same molecule?
**A.** Its remaining activity at 1 µM is 79%.

**Q.** And the remaining activity at 1 µM (Met(h))?
**A.** The remaining activity at 1 µM was 81%.

**Q.** And the remaining activity at 1 µM (CK1γ2(h))?
**A.** Its remaining activity at 1 µM is 85%.

**Q.** What about the remaining activity at 1 µM (MLK1(h)) of the same molecule?
**A.** The remaining activity at 1 µM was 87%.

**Q.** And the remaining activity at 1 µM (PKCδ(h))?
**A.** Its remaining activity at 1 µM is 89%.

**Q.** And the remaining activity at 1 µM (ROCK-I(h))?
**A.** The remaining activity at 1 µM was 90%.

**Q.** And the remaining activity at 1 µM (IR(h), activated)?
**A.** Its remaining activity at 1 µM is 93%.

**Q.** What about the remaining activity at 1 µM (MST3(h)) of the same molecule?
**A.** Its remaining activity at 1 µM is 93%.

**Q.** And the remaining activity at 1 µM (FAK(h))?
**A.** The remaining activity at 1 µM was 94%.

**Q.** And the remaining activity at 1 µM (PKCα(h))?
**A.** The remaining activity at 1 µM was 95%.

**Q.** And the remaining activity at 1 µM (NEK6(h))?
**A.** The remaining activity at 1 µM was 97%.

**Q.** What about the remaining activity at 1 µM (FGFR1(h)) of the same molecule?
**A.** The remaining activity at 1 µM was 99%.

**Q.** And the remaining activity at 1 µM (PTK5(h))?
**A.** Its remaining activity at 1 µM is 99%.

**Q.** And the remaining activity at 1 µM (MAPKAP-K2(h))?
**A.** The remaining activity at 1 µM was 101%.

**Q.** What about the remaining activity at 1 µM (Ros(h)) of the same molecule?
**A.** The remaining activity at 1 µM was 104%.

**Q.** What about the remaining activity at 1 µM (EphA2(h)) of the same molecule?
**A.** Its remaining activity at 1 µM is 106%.

**Q.** And the remaining activity at 1 µM (EphB2(h))?
**A.** The remaining activity at 1 µM was 106%.

**Q.** And the remaining activity at 1 µM (ZAP-70(h))?
**A.** The remaining activity at 1 µM was 108%.

**Q.** And the remaining activity at 1 µM (JAK2(h))?
**A.** Its remaining activity at 1 µM is 121%.
